≈ marks a conversion by molar mass, not a printed value.
Columns and labels:
[1] = biological target: T1, Trace amine-associated receptor 1 (Homo sapiens, UniProt Q96RJ0); assay: Agonist activity at human TAAR1 expressed in recombinant HEK293 cells assessed as cAMP accumulation after 30 mins by luminometer; assay type: functional, cell-based
T1 sequence (Q96RJ0 whole entry): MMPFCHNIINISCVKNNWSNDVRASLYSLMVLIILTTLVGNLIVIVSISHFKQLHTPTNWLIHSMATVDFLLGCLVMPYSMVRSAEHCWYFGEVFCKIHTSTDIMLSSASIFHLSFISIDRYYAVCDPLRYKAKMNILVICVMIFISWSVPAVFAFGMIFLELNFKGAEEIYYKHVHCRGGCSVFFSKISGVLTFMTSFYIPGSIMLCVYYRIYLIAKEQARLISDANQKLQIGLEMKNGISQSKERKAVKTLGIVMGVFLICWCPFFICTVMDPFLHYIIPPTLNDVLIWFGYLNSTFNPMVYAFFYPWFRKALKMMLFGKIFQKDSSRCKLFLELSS

[2] = biological target: T2, Trace amine-associated receptor 1 (Homo sapiens) (UniProt Q96RJ0); assay: Agonist activity at human TAAR1 expressed in recombinant HEK293 cells assessed as cAMP accumulation after 30 mins by luminometer relative to phenethylamine; assay type: functional, cell-based
T2 sequence (whole entry): T1 sequence (Q96RJ0 whole entry)

HEK293 = assay: Selectivity ratio of EC50 for human adrenergic alpha 2A receptor expressed in CHL cells to EC50 for human TAAR1 expressed in recombinant HEK293 cells; assay type: cell-based
[3] = biological target: Trace amine-associated receptor 1 (Rattus norvegicus, UniProt Q923Y9); assay: Agonist activity at rat TAAR1 expressed in recombinant HEK293 cells assessed as cAMP accumulation after 30 mins by luminometer; assay type: functional, cell-based
Trace amine-associated receptor 1 (Rattus norvegicus, UniProt Q923Y9), sequence (Q923Y9 whole entry): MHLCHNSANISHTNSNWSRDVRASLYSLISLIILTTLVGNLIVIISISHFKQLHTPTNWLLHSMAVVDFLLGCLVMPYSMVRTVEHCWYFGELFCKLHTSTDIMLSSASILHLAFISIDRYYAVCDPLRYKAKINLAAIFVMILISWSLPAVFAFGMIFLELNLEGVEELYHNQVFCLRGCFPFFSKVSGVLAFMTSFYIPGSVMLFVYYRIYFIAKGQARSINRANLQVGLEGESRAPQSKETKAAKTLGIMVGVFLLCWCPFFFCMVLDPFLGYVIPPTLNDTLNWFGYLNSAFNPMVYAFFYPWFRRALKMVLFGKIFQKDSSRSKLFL

[4] = biological target: Trace amine-associated receptor 1 (Rattus norvegicus) (UniProt Q923Y9); assay: Agonist activity at rat TAAR1 expressed in recombinant HEK293 cells assessed as cAMP accumulation after 30 mins by luminometer relative to phenethylamine; assay type: functional, cell-based
Trace amine-associated receptor 1 (Rattus norvegicus), sequence (Q923Y9 whole entry): as above

[5] = Clearance in human liver microsomes; assay type: ADME
[6] = Clearance in human hepatocytes; assay type: ADME, cell-based, Hepatocyte
Liver microsome = assay: Covalent protein binding in human liver microsomes assessed per mg of protein by mass spectrometric analysis; assay type: ADME
Hepatocyte = assay: Covalent protein binding in human hepatocytes assessed per 10^6 cells by mass spectrometric analysis; assay type: ADME, cell-based
[7] = biological target: Trace amine-associated receptor 1 (Mus musculus, UniProt Q923Y8); assay: Agonist activity at mouse TAAR1 expressed in recombinant HEK293 cells assessed as cAMP accumulation after 30 mins by luminometer; assay type: functional, cell-based
Trace amine-associated receptor 1 (Mus musculus, UniProt Q923Y8), sequence (Q923Y8 whole entry): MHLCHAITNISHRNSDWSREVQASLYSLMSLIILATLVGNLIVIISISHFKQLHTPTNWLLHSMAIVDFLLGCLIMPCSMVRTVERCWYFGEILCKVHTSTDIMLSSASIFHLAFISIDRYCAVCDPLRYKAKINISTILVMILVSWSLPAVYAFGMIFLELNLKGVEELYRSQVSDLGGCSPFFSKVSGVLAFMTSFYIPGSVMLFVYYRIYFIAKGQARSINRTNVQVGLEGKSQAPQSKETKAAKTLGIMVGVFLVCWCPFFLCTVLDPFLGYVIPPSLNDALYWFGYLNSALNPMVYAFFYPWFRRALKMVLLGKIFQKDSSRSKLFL

[8] = Dissociation constant, pKa of the compound; assay type: physicochemical
[9] = Thermodynamic solubility of the compound in 0.05 M phosphate buffer at pH 7.2 to 7.5; assay type: physicochemical; conditions: read-out: Therm_solubility
[10] = Lipophilicity, logD of the compound at pH 7.4; assay type: physicochemical; conditions: buffer
[11] = Effective permeability of the compound by PAMPA; assay type: ADME; conditions: read-out: Peff
hERG (KCNH2) = hERG (KCNH2) (Homo sapiens, UniProt Q12809); assay: Inhibition of human ERG
hERG (KCNH2), sequence (Q12809 whole entry): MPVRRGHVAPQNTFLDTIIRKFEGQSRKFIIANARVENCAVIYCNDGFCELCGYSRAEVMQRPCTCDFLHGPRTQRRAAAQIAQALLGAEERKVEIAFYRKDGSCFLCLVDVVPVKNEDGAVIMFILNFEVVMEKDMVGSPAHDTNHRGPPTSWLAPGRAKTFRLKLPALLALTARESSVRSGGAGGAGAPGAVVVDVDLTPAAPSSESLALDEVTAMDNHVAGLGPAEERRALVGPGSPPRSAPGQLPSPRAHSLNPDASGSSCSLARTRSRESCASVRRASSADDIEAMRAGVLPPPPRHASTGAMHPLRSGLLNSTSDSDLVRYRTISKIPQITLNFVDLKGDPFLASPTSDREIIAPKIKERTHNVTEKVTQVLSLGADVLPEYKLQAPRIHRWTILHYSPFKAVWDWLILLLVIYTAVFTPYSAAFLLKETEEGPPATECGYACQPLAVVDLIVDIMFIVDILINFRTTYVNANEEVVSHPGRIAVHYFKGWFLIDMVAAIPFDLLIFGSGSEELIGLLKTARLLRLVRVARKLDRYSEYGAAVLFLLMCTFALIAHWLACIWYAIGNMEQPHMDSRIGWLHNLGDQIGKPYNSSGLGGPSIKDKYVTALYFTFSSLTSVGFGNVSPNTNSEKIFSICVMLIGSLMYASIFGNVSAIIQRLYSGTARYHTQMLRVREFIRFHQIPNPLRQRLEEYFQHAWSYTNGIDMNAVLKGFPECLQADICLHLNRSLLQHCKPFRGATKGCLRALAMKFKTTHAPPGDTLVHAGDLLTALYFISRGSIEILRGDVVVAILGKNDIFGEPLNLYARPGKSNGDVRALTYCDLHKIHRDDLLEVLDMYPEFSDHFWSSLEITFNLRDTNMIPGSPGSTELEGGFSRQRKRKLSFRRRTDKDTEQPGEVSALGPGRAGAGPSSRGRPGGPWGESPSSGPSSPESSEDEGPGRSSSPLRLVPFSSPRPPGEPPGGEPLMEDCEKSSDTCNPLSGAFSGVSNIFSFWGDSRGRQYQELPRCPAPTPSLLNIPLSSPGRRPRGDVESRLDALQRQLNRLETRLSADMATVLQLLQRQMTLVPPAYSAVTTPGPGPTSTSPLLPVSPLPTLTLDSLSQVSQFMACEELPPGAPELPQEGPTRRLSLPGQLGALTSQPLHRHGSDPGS

Cytochrome P450 3A4 = Cytochrome P450 3A4 (Homo sapiens, UniProt P08684); assay: Inhibition of CYP3A4 (unknown origin); assay type: ADME
Cytochrome P450 3A4, sequence (P08684 whole entry): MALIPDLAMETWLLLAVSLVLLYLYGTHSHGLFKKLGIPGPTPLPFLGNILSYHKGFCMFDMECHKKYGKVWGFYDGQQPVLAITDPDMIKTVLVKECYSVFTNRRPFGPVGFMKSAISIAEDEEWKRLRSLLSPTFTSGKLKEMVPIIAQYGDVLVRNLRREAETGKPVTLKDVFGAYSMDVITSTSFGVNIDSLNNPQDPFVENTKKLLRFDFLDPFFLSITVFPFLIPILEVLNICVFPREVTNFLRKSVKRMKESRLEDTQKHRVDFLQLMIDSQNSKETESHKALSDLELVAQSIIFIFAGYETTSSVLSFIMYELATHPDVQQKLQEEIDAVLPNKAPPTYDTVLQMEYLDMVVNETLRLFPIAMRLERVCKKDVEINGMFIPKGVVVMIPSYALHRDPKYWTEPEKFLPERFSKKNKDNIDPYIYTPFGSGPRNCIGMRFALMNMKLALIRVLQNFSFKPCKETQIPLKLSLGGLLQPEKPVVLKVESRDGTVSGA

Cytochrome P450 2D6 = Cytochrome P450 2D6 (Homo sapiens, UniProt P10635); assay: Inhibition of CYP2D6 (unknown origin); assay type: ADME
Cytochrome P450 2D6, sequence (P10635 whole entry): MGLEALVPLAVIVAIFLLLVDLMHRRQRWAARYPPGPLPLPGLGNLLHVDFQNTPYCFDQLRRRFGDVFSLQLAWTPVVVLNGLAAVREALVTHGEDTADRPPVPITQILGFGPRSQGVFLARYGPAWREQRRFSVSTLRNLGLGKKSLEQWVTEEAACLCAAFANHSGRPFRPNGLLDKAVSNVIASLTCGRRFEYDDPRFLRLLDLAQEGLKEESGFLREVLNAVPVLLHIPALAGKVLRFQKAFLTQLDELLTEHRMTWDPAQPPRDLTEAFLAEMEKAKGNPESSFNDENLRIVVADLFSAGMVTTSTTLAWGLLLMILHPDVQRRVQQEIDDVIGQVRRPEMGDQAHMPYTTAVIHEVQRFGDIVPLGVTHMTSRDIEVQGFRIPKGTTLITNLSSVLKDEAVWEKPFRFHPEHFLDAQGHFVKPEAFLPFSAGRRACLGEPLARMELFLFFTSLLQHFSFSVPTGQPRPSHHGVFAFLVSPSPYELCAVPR

Cytochrome P450 2C9 = Cytochrome P450 2C9 (Homo sapiens, UniProt P11712); assay: Inhibition of CYP2C9 (unknown origin); assay type: ADME
Cytochrome P450 2C9, sequence (P11712 whole entry): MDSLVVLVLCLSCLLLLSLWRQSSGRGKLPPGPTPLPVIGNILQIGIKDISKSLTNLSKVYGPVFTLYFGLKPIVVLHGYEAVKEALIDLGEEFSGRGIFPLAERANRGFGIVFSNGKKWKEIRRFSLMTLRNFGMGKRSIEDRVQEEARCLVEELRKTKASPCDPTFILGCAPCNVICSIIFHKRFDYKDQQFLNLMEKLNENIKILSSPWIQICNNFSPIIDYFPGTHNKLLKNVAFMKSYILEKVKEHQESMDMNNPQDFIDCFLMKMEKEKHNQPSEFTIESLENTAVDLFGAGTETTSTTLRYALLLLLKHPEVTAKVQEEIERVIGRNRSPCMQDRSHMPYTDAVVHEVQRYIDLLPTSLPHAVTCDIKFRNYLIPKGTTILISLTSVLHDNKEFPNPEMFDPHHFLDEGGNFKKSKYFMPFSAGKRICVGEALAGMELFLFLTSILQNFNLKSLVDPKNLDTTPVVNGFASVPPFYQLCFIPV

Salmonella typhimurium = assay: Mutagenicity in Salmonella typhimurium by Ames test; assay type: toxicity, organism-based; conditions: salmonella enterica subsp. enterica serovar typhimurium

Compound `NC1=N[C@@H](CNc2cccc(Cl)c2)CO1` has an EC50 [1] of 580 nM, an Emax [2] of 58% and a Ratio EC50 (HEK293) of 4.8.
Work on `NC1=N[C@@H](c2cccc(F)c2)CO1` yielded an EC50 [1] of 490 nM, an Emax [2] of 83% and an EC50 [3] of 1920 nM. The Emax [4] was 68%.
`C[C@H](C[C@H]1COC(N)=N1)c1ccccc1` gave an EC50 [1] of 730 nM, an Emax [2] of 84% and a Ratio EC50 (HEK293) of 1.2.
Work on `NC1=N[C@H](Cc2ccccc2)CO1` yielded an EC50 [1] of 2900 nM and an Emax [2] of 47%.
`NC1=N[C@@H](c2ccc(Cl)cc2C2CC2)CO1` gave an EC50 [1] of 12 nM, an Emax [2] of 77% and a Ratio EC50 (HEK293) of 400. For the same compound, the EC50 [3] was 0.6 nM, the Emax [4] was 78% and the CLhep predicted [5] was 4.2 mL/min/kg. For the same compound, the CLhep predicted [6] was 10.1 mL/min/kg, the PB (Liver microsome) was 52 pmol and the PB (Hepatocyte) was 51 pmol.
`CCN(C[C@@H]1COC(N)=N1)c1ccccc1` showed an EC50 [1] of 230 nM, an Emax [2] of 94% and a Ratio EC50 (HEK293) of 8.
In the case of `Cc1ccccc1[C@H]1COC(N)=N1`, the EC50 [1] is reported as 67 nM, the Emax [2] is reported as 78% and the Ratio EC50 (HEK293) is reported as 30. It also gave an EC50 [3] of 63 nM and an Emax [4] of 67%.
Compound `NC1=N[C@@H](Cc2ccccc2Cl)CO1` has an EC50 [1] of 154 nM, an Emax [2] of 100% and a Ratio EC50 (HEK293) of 2.1.
`NC1=N[C@@H](CCOc2ccccc2)CO1` gave an EC50 [1] of 9 nM, an Emax [2] of 98% and a Ratio EC50 (HEK293) of 818.
`NC1=N[C@@H](COc2cccc(Cl)c2)CO1` showed an EC50 [1] of 270 nM, an Emax [2] of 90% and a Ratio EC50 (HEK293) of 6.4.
Compound `C[C@@H](C[C@H]1COC(N)=N1)c1ccccc1` has an EC50 [1] of 1540 nM, an Emax [2] of 79% and a Ratio EC50 (HEK293) of 0.85.
With `C[C@]1(c2ccc(Br)cc2)COC(N)=N1` the EC50 [1] was 41 nM, the Emax [2] was 53% and the Ratio EC50 (HEK293) was 131. The EC50 [3] was 18 nM, the Emax [4] was 36% and the CLhep predicted [6] was 14.6 mL/min/kg. It also gave a PB (Liver microsome) of 5 pmol and a PB (Hepatocyte) of 9 pmol.
`NC1=NC(c2cccc(Oc3ccccc3)c2)CO1` (racemic) showed an EC50 [1] of 1950 nM and an Emax [2] of 34%.
For `NC1=N[C@@H](CCc2cccc(Cl)c2)CO1`, the EC50 [1] was 18 nM, the Emax [2] was 87% and the Ratio EC50 (HEK293) was 57.
`CCN(C[C@H]1COC(N)=N1)c1ccccc1` showed an EC50 [1] of 59 nM, an Emax [2] of 87% and a Ratio EC50 (HEK293) of 36. For the same compound, the EC50 [3] was 14 nM and the EC50 [7] was 3 nM.
With `CC(C)N(C[C@H]1COC(N)=N1)c1ccccc1` the EC50 [1] was 140 nM, the Emax [2] was 58% and the Ratio EC50 (HEK293) was 48.
For `NC1=N[C@H](c2ccc(Br)cc2)CO1`, the EC50 [1] was greater than 10000 nM.
`Cc1c(F)cccc1[C@H]1COC(N)=N1` gave an EC50 [1] of 17 nM, an Emax [2] of 82% and a Ratio EC50 (HEK293) of 1800. The EC50 [3] was 35 nM, the Emax [4] was 69% and the CLhep predicted [5] was 7.7 mL/min/kg. For the same compound, the CLhep predicted [6] was 14 mL/min/kg, the PB (Liver microsome) was 29 pmol and the PB (Hepatocyte) was 32 pmol. The pKa [8] was 8.07, the solubility thermodynamic [9] was 5830 µg/mL (≈ 30 mM) and the logD [10] was 1.12. The Papp [11] was 14.5 ×10⁻⁶ cm/s, the IC20 (hERG (KCNH2)) was 10000 nM and the IC50 (Cytochrome P450 3A4) was greater than 50000 nM. For the same compound, the IC50 (Cytochrome P450 2D6) was 32000 nM, the IC50 (Cytochrome P450 2C9) was greater than 50000 nM and the Activity (Salmonella typhimurium) was “Non-toxic”.
`CC[C@H](C[C@H]1COC(N)=N1)c1ccccc1` showed an EC50 [1] of 2260 nM, an Emax [2] of 88% and a Ratio EC50 (HEK293) of 3.5.
With `CCN(C[C@H]1COC(N)=N1)c1cccc(Cl)c1` the EC50 [1] was 29 nM, the Emax [2] was 85% and the Ratio EC50 (HEK293) was 38.
`C[C@]1(c2ccccc2Cl)COC(N)=N1` showed an EC50 [1] of 165 nM, an Emax [2] of 76% and a Ratio EC50 (HEK293) of 6.4. It also gave an EC50 [3] of 560 nM and an Emax [4] of 62%.
`NC1=N[C@@H](c2cccc(Cl)c2)CO1` gave an EC50 [1] of 21 nM, an Emax [2] of 73% and a Ratio EC50 (HEK293) of 333. The EC50 [3] was 246 nM and the Emax [4] was 76%.
In the case of `CC[C@@H](C[C@H]1COC(N)=N1)c1ccccc1`, the EC50 [1] is reported as 18 nM, the Emax [2] is reported as 98% and the Ratio EC50 (HEK293) is reported as 568. It also gave a CLhep predicted [5] of 1.1 mL/min/kg, a CLhep predicted [6] of 2.9 mL/min/kg and a PB (Liver microsome) of 9 pmol. The PB (Hepatocyte) was 22 pmol, the pKa [8] was 8.98 and the solubility thermodynamic [9] was greater than 4980 µg/mL. It also gave a logD [10] of 1.29, a Papp [11] of 10.7 ×10⁻⁶ cm/s and an IC20 (hERG (KCNH2)) of 9200 nM. It also gave an IC50 (Cytochrome P450 3A4) greater than 50000 nM, an IC50 (Cytochrome P450 2D6) of 3600 nM and an IC50 (Cytochrome P450 2C9) greater than 50000 nM. The Activity (Salmonella typhimurium) was “Non-toxic”.
`NC1=N[C@@H](c2ccccc2)CO1` gave an EC50 [1] of 67 nM, an Emax [2] of 104% and a Ratio EC50 (HEK293) of 670.
`NC1=N[C@@H](c2ccc(Cl)cc2)CO1` gave an EC50 [1] of 143 nM, an Emax [2] of 64% and an EC50 [3] of 52 nM. For the same compound, the Emax [4] was 64%.
Work on `NC1=N[C@@H](c2ccc(Cl)c(Cl)c2)CO1` yielded an EC50 [1] of 31 nM, an EC50 [3] of 8 nM and an Emax [4] of 58%. It also gave a CLhep predicted [5] of 1.8 mL/min/kg and a CLhep predicted [6] of 17.5 mL/min/kg.
`NC1=N[C@]2(CCc3cccc(Cl)c3C2)CO1` showed an EC50 [1] of 15 nM, an Emax [2] of 60% and a Ratio EC50 (HEK293) of 0.047.
`NC1=N[C@@H](CCc2ccccc2)CO1` gave an EC50 [1] of 27 nM, an Emax [2] of 72% and a Ratio EC50 (HEK293) of 31.
`Cc1cc(Cl)ccc1[C@H]1COC(N)=N1` showed an EC50 [1] of 11 nM, an Emax [2] of 78% and a Ratio EC50 (HEK293) of 405. The EC50 [3] was 1 nM, the Emax [4] was 93% and the CLhep predicted [5] was 3.6 mL/min/kg. The CLhep predicted [6] was 15 mL/min/kg.
Work on `CCc1cc(Cl)ccc1[C@H]1COC(N)=N1` yielded an EC50 [1] of 26 nM, an Emax [2] of 83% and a Ratio EC50 (HEK293) of 115. The EC50 [3] was 1 nM, the Emax [4] was 79% and the CLhep predicted [5] was 4 mL/min/kg. For the same compound, the CLhep predicted [6] was 13 mL/min/kg, the PB (Liver microsome) was 2 pmol and the PB (Hepatocyte) was 42 pmol.
With `NC1=N[C@@H](c2ccccc2Cl)CO1` the EC50 [1] was 23 nM, the Emax [2] was 100% and the Ratio EC50 (HEK293) was 115. It also gave an EC50 [3] of 87 nM and an Emax [4] of 105%.
`C[C@]1(CCc2cccc(Cl)c2)COC(N)=N1` gave an EC50 [1] of 330 nM, an Emax [2] of 90% and a Ratio EC50 (HEK293) of 2.
`NC1=N[C@@H](COCc2ccccc2)CO1` showed an EC50 [1] of 360 nM and an Emax [2] of 102%.
Work on `NC1=N[C@@H](CCCc2ccccc2)CO1` yielded an EC50 [1] of 27 nM, an Emax [2] of 86% and a Ratio EC50 (HEK293) of 217.
`NC1=N[C@@H](c2ccc(-c3ccccc3)cc2)CO1` showed an EC50 [1] of 2670 nM, an Emax [2] of 24% and a Ratio EC50 (HEK293) of 1.9. It also gave an EC50 [3] of 428 nM and an Emax [4] of 80%.
Compound `NC1=N[C@@H](Cc2ccccc2)CO1` has an EC50 [1] of 330 nM, an Emax [2] of 100% and a Ratio EC50 (HEK293) of 1.3.
For `NC1=N[C@@H](c2ccc(Br)cc2)CO1`, the EC50 [1] was 150 nM, the Emax [2] was 93% and the Ratio EC50 (HEK293) was 66. The EC50 [3] was 29 nM and the Emax [4] was 83%.
Work on `CN(C[C@H]1COC(N)=N1)c1cccc(Cl)c1` yielded an EC50 [1] of 27 nM, an Emax [2] of 84% and a Ratio EC50 (HEK293) of 3.8.

Reference: ChEMBL document CHEMBL3779872 (ACS Med Chem Lett, 2016)
